From PubChem BioAssay AID330 (DTP/NCI, 2004) come the findings set out here.

Values joined by “and” are separate entries in the source; they are usually repeats but may differ in a detail not shown here. Equal entries are not always repeated. Inconclusive results and toxic doses are left out.

The subject of the test is P388 leukemia ip, CD2F1 mice, survival T/C. The test is described as follows: NCI In Vivo Anticancer Drug Screen. Data for tumor model P388 Leukemia (intraperitoneal) in CD2F1 (CDF1) mice. As to conditions: endpoint: median survival time, higher = longer survival. A digest of the protocol: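 Mice carrying the transplanted tumor received test compound or vehicle. Survival was recorded in each group, and the value is the treated-group measurement divided by that of the vehicle-treated control group.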

Where [1] appears, read: dose: 30.0 mg/kg/injection, schedule: Q01DX005 (ip), vehicle: saline.
Where [2] appears, read: dose: 50.0 mg/kg/injection, schedule: Q01DX009 (ip), vehicle: saline.
[3] abbreviates: dose: 100.0 mg/kg/injection, schedule: Q01DX009 (ip), vehicle: saline.
The mark [4] stands for this setting: dose: 50.0 mg/kg/injection, schedule: Q04DX003 (ip), vehicle: Klucel (hydroxypropylcellulose) (HPC).
[5] abbreviates: dose: 100.0 mg/kg/injection, schedule: Q04DX003 (ip), vehicle: Klucel (hydroxypropylcellulose) (HPC).
Setting [6] is: dose: 200.0 mg/kg/injection, schedule: Q04DX003 (ip), vehicle: Klucel (hydroxypropylcellulose) (HPC).
[7] abbreviates: dose: 400.0 mg/kg/injection, schedule: Q04DX003 (ip), vehicle: Klucel (hydroxypropylcellulose) (HPC).

For `COc1ccc(N2c3ccccc3-c3cc[nH]c(=O)c3[C@H]2O)cc1OC`, the T/C reads like this: (dose: 18.75 mg/kg/injection, schedule: Q01DX001 (ip), vehicle: Klucel (hydroxypropylcellulose) (HPC)) 101 % of control; (dose: 18.75 mg/kg/injection, schedule: Q04DX002 (ip), vehicle: Klucel (hydroxypropylcellulose) (HPC)) 99 % of control; (dose: 18.75 mg/kg/injection, schedule: Q04DX003 (ip), vehicle: Klucel (hydroxypropylcellulose) (HPC)) 112 % of control; (dose: 37.5 mg/kg/injection, schedule: Q01DX001 (ip), vehicle: Klucel (hydroxypropylcellulose) (HPC)) 100 % of control; (dose: 37.5 mg/kg/injection, schedule: Q04DX002 (ip), vehicle: Klucel (hydroxypropylcellulose) (HPC)) 110 % of control; (dose: 37.5 mg/kg/injection, schedule: Q04DX003 (ip), vehicle: Klucel (hydroxypropylcellulose) (HPC)) 96 % of control. The T/C reads like this: (dose: 75.0 mg/kg/injection, schedule: Q01DX001 (ip), vehicle: Klucel (hydroxypropylcellulose) (HPC)) 103 % of control; (dose: 75.0 mg/kg/injection, schedule: Q04DX002 (ip), vehicle: Klucel (hydroxypropylcellulose) (HPC)) 106 % of control; (dose: 75.0 mg/kg/injection, schedule: Q04DX003 (ip), vehicle: Klucel (hydroxypropylcellulose) (HPC)) 96 % of control; (dose: 150.0 mg/kg/injection, schedule: Q01DX001 (ip), vehicle: Klucel (hydroxypropylcellulose) (HPC)) 104 % of control; (dose: 150.0 mg/kg/injection, schedule: Q04DX002 (ip), vehicle: Klucel (hydroxypropylcellulose) (HPC)) 101 % of control; (dose: 150.0 mg/kg/injection, schedule: Q04DX003 (ip), vehicle: Klucel (hydroxypropylcellulose) (HPC)) 106 % of control.
Regarding `O=C(O)CC(SCP(=O)(O)O)C(=O)O` (stereo not given), the T/C is, setting by setting: under setting [1], 98 % of control; (dose: 60.0 mg/kg/injection, schedule: Q01DX005 (ip), vehicle: saline) 91 % of control; (dose: 120.0 mg/kg/injection, schedule: Q01DX005 (ip), vehicle: saline) 89 % of control; (dose: 240.0 mg/kg/injection, schedule: Q01DX005 (ip), vehicle: saline) 93 % of control and 97 % of control.
Take `CCOC(=O)c1c(N)ssc1=S`: the T/C reads like this: under setting [2], 100 % of control; under setting [3], 97 % of control; (dose: 200.0 mg/kg/injection, schedule: Q01DX009 (ip), vehicle: saline) 105 % of control.
As for `CC[n+]1c(/C=C/c2ccc(N(CCC(=O)O)CCC(=O)O)cc2)sc2ccccc21`, the T/C is, setting by setting: (dose: 12.5 mg/kg/injection, schedule: Q04DX003 (ip), vehicle: saline with Tween-80) 99 % of control; (dose: 25.0 mg/kg/injection, schedule: Q04DX003 (ip), vehicle: saline with Tween-80) 100 % of control; (dose: 50.0 mg/kg/injection, schedule: Q04DX003 (ip), vehicle: saline with Tween-80) 101 % of control.
Regarding `Nc1nc2[nH]c(=O)c(=O)[nH]c2c(=O)[nH]1`, the T/C by setting is: under setting [4], 96 % of control; under setting [5], 97 % of control; under setting [6], 94 % of control; under setting [7], 105 % of control.
Consider `CC(O)CCC(=O)c1ccoc1` (stereo not given), for which the T/C runs as follows: (dose: 1.87 mg/kg/injection, schedule: Q01DX005 (ip), vehicle: saline) 97 % of control; (dose: 3.75 mg/kg/injection, schedule: Q01DX005 (ip), vehicle: saline) 100 % of control; (dose: 7.5 mg/kg/injection, schedule: Q01DX005 (ip), vehicle: saline) 100 % of control and 96 % of control; (dose: 15.0 mg/kg/injection, schedule: Q01DX005 (ip), vehicle: saline) 100 % of control and 93 % of control; under setting [1], 109 % of control.
`COc1ccc(CCNCC(O)c2ccc(C)s2)cc1OC` (stereo not given): the T/C (dose: 12.5 mg/kg/injection, schedule: Q01DX009 (ip), vehicle: saline) was 100 % of control; the T/C (dose: 25.0 mg/kg/injection, schedule: Q01DX009 (ip), vehicle: saline) is 86 % of control; the T/C under setting [2] was 101 % of control and 86 % of control; the T/C under setting [3] was 98 % of control.
`CNC(=O)c1ccccc1Sc1ccccc1C(=O)NC`: the T/C by setting is: (dose: 100.0 mg/kg/injection, schedule: Q01DX001 (ip), vehicle: other) 100 % of control; (dose: 200.0 mg/kg/injection, schedule: Q01DX001 (ip), vehicle: other) 101 % of control; (dose: 400.0 mg/kg/injection, schedule: Q01DX001 (ip), vehicle: other) 100 % of control.
For `CCS(=O)(=O)Nc1cccc(Nc2c3cccc(C)c3nc3c(C)cccc23)c1OC`, the T/C runs as follows: (dose: 0.7 mg/kg/injection, schedule: Q01DX009 (ip), vehicle: saline with Tween-80) 121 % of control; (dose: 5.5 mg/kg/injection, schedule: Q01DX009 (ip), vehicle: saline with Tween-80) 157 % of control; (dose: 6.25 mg/kg/injection, schedule: Q01DX009 (ip), vehicle: saline with Tween-80) 171 % of control; (dose: 11.0 mg/kg/injection, schedule: Q01DX009 (ip), vehicle: saline with Tween-80) 172 % of control and 217 % of control; (dose: 12.5 mg/kg/injection, schedule: Q01DX009 (ip), vehicle: saline with Tween-80) 177 % of control; (dose: 16.7 mg/kg/injection, schedule: Q01DX009 (ip), vehicle: saline with Tween-80) 220 % of control. Also, the T/C by setting is: (dose: 25.0 mg/kg/injection, schedule: Q01DX009 (ip), vehicle: saline with Tween-80) 155 % of control and 266 % of control; (dose: 37.5 mg/kg/injection, schedule: Q01DX009 (ip), vehicle: saline with Tween-80) 86 % of control; (dose: 50.0 mg/kg/injection, schedule: Q01DX009 (ip), vehicle: saline with Tween-80) 91 % of control.
Turning to `CC(C)(O)/C=C/C(=O)[C@](C)(O)[C@H]1[C@H](O)C[C@@]2(C)[C@@H]3CC=C4[C@@H](C[C@H](O)C(=O)C4(C)C)[C@]3(C)C(=O)C[C@]12C`, the T/C (dose: 0.25 mg/kg/injection, schedule: Q01DX009 (ip), vehicle: saline + Tween-80 + alcohol) was 118 % of control; the T/C (dose: 0.25 mg/kg/injection, schedule: Q01DX009 (ip), vehicle: saline with Tween-80) was 105 % of control; the T/C (dose: 0.25 mg/kg/injection, schedule: Q01DX009 (ip), vehicle: saline) is 113 % of control; the T/C (dose: 0.5 mg/kg/injection, schedule: Q01DX009 (ip), vehicle: saline + Tween-80 + alcohol) is 121 % of control; the T/C (dose: 0.5 mg/kg/injection, schedule: Q01DX009 (ip), vehicle: saline with Tween-80) is 108 % of control; the T/C (dose: 0.5 mg/kg/injection, schedule: Q01DX009 (ip), vehicle: saline) was 111 % of control. The T/C is 95 % of control (dose: 0.5 mg/kg/injection, schedule: Q01DX010 (ip), vehicle: saline); 152 % of control (dose: 0.96 mg/kg/injection, schedule: Q01DX009 (ip), vehicle: saline + Tween-80 + alcohol); 105 % of control (dose: 0.96 mg/kg/injection, schedule: Q01DX009 (ip), vehicle: saline with Tween-80); 118 % of control (dose: 1.0 mg/kg/injection, schedule: Q01DX009 (ip), vehicle: saline + Tween-80 + alcohol); 119 % of control (dose: 1.0 mg/kg/injection, schedule: Q01DX009 (ip), vehicle: saline with Tween-80); 111 % of control (dose: 1.0 mg/kg/injection, schedule: Q01DX009 (ip), vehicle: saline).
As to `OC[C@@H]1CCCN2CCCC[C@H]12`, the T/C was 91 % of control (dose: 6.2 mg/kg/injection, schedule: Q01DX007 (ip), vehicle: carboxymethylcellulose (CMC)); 91 % of control (dose: 12.5 mg/kg/injection, schedule: Q01DX007 (ip), vehicle: carboxymethylcellulose (CMC)); 91 % of control (dose: 25.0 mg/kg/injection, schedule: Q01DX007 (ip), vehicle: carboxymethylcellulose (CMC)).
Regarding `O=C1N2CCSC2=NC1(c1ccccc1)c1ccccc1`, the T/C runs as follows: (dose: 25.0 mg/kg/injection, schedule: Q04DX003 (ip), vehicle: Klucel (hydroxypropylcellulose) (HPC)) 100 % of control; under setting [4], 100 % of control; under setting [5], 93 % of control; under setting [6], 102 % of control; under setting [7], 100 % of control.
For the compound `CCOC(=O)c1cnc2cc(C)cc(C)c2c1Nc1ccc2c(c1)OCO2`, the T/C was 100 % of control (dose: 60.0 mg/kg/injection, schedule: Q01DX005 (ip), vehicle: Klucel + Tween-80); 92 % of control (dose: 120.0 mg/kg/injection, schedule: Q01DX005 (ip), vehicle: Klucel + Tween-80); 87 % of control (dose: 240.0 mg/kg/injection, schedule: Q01DX005 (ip), vehicle: Klucel + Tween-80).
